Test results from ChEMBL document CHEMBL4393691, “Design, synthesis and antitumor evaluation of novel celastrol derivatives” (Eur J Med Chem, 2019).
Active and inactive are the calls of the source. The rule behind the calls is not given here.

Experiments:
A549 [1] = assay: Induction of apoptosis in human A549 cells incubated for 48 hrs by Hoechst 33342 staining-based fluorescence microscopy; assay type: functional, cell-based
A549 [2] = assay: Cell cycle arrest in human A549 cells assessed as accumulation at G0/G1 phase by propidium iodide staining based flow cytometric analysis; assay type: functional
MCF7 = assay: Antiproliferative activity against human MCF7 cells assessed as reduction in cell viability at 1 uM incubated for 48 hrs by MTT assay relative to control; assay type: functional; conditions: MCF7, 48 h
[3] = target: RAC-alpha serine/threonine-protein kinase (Homo sapiens) (UniProt P31749); assay: Inhibition of Akt phosphorylation in human A549 cells incubated for 8 hrs by Western blot analysis; assay type: cell-based
A549 [4] = assay: Cell cycle arrest in human A549 cells assessed as accumulation at G1 phase at 0.06 uM incubated for 12 hrs by propidium iodide staining based flow cytometry analysis (Rvb=49.49%); assay type: functional
A549 [5] = assay: Cell cycle arrest in human A549 cells assessed as accumulation at S phase at 0.06 uM incubated for 12 hrs by propidium iodide staining based flow cytometry analysis (Rvb=38.46%); assay type: functional
A549 [6] = assay: Cell cycle arrest in human A549 cells assessed as accumulation at G2 phase at 0.06 uM incubated for 12 hrs by propidium iodide staining based flow cytometry analysis (Rvb=11.7%); assay type: functional
A549 [7] = assay: Cell cycle arrest in human A549 cells assessed as accumulation at S phase at 0.18 uM incubated for 12 hrs by propidium iodide staining based flow cytometry analysis (Rvb=38.46%); assay type: functional
A549 [8] = assay: Cell cycle arrest in human A549 cells assessed as accumulation at G1 phase at 0.18 uM incubated for 24 hrs by propidium iodide staining based flow cytometry analysis (Rvb=55.3%); assay type: functional
A549 [9] = assay: Cell cycle arrest in human A549 cells assessed as accumulation at S phase at 0.18 uM incubated for 24 hrs by propidium iodide staining based flow cytometry analysis (Rvb=27.61%); assay type: functional
A549 [10] = assay: Cell cycle arrest in human A549 cells assessed as accumulation at G2 phase at 0.18 uM incubated for 24 hrs by propidium iodide staining based flow cytometry analysis (Rvb=18.01%); assay type: functional
A549 [11] = assay: Cell cycle arrest in human A549 cells assessed as accumulation at G1 phase at 0.27 uM incubated for 24 hrs by propidium iodide staining based flow cytometry analysis (Rvb=55.3%); assay type: functional
A549 [12] = assay: Induction of apoptosis in human A549 cells assessed as early apoptotic cells at 0.2 uM incubated for 24 hrs by AnnexinV-FITC/propidium iodide/propidium iodide staining-based flow cytometric analysis (reference value: 4.1%); assay type: functional
A549 [13] = assay: Induction of apoptosis in human A549 cells assessed as necrotic cells at 0.4 uM incubated for 24 hrs by AnnexinV-FITC/propidium iodide staining-based flow cytometric analysis (reference value: 3.6%); assay type: functional
A549 [14] = assay: Induction of apoptosis in human A549 cells assessed as viable cells at 0.6 uM incubated for 24 hrs by AnnexinV-FITC/propidium iodide staining-based flow cytometric analysis (reference value: 88.1%); assay type: functional; conditions: A549, 24 h, read-out: Activity
A549 [15] = assay: Induction of apoptosis in human A549 cells assessed as necrotic cells at 0.6 uM incubated for 24 hrs by AnnexinV-FITC/propidium iodide staining-based flow cytometric analysis (reference value: 3.6%); assay type: functional
A549 [16] = assay: Induction of apoptosis in human A549 cells assessed as viable cells at 0.8 uM incubated for 24 hrs by AnnexinV-FITC/propidium iodide staining-based flow cytometric analysis (reference value: 88.1%); assay type: functional; conditions: A549, 24 h, read-out: Activity
A549 [17] = assay: Induction of apoptosis in human A549 cells assessed as late apoptotic cells at 0.8 uM incubated for 24 hrs by AnnexinV-FITC/propidium iodide staining-based flow cytometric analysis (reference value: 4.2%); assay type: functional
A549 [18] = assay: Induction of apoptosis in human A549 cells assessed as necrotic cells at 1.2 uM incubated for 24 hrs by AnnexinV-FITC/propidium iodide staining-based flow cytometric analysis (reference value: 3.6%); assay type: functional
A549 [19] = assay: Induction of apoptosis in human A549 cells assessed as nuclear fragmentation at 0.06 to 0.18 uM incubated for 48 hrs by Hoechst 33342 staining-based fluorescence microscopy; assay type: functional, cell-based

RAC-alpha serine/threonine-protein kinase (Homo sapiens), sequence (P31749 whole entry): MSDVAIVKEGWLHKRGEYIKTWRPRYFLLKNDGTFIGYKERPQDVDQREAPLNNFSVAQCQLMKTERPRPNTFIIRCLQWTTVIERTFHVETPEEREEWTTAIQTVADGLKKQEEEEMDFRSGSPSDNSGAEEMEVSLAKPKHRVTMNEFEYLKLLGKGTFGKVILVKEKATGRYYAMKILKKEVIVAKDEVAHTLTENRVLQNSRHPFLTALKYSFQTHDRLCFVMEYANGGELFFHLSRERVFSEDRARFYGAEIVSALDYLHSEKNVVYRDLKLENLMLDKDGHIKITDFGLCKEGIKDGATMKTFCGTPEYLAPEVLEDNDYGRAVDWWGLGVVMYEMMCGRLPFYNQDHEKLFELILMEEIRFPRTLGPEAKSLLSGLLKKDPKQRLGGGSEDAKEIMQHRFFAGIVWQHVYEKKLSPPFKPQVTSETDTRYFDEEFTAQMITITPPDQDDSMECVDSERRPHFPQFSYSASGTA

- inhibition [3]: Dose-dependent effect
SMILES: COC(=O)/C=C\c1ccc(OC)c(OCCOC(=O)[C@]2(C)CC[C@]3(C)CC[C@]4(C)C5=CC=C6C(=CC(=O)C(O)=C6C)[C@]5(C)CC[C@@]4(C)[C@@H]3C2)c1
- Activity (A549 [1]): Dose-dependent effect
- Activity (A549 [2]): Dose-dependent effect
- inhibition at 1 µM (MCF7): 87.7%
- Activity (A549 [4]): 52.22%
- Activity (A549 [5]): 36.32%
- Activity (A549 [6]): 12.14%
- Activity (A549 [7]): 34.71%
- Activity (A549 [8]): 61.95%
- Activity (A549 [9]): 29.7%
- Activity (A549 [10]): 10.87%
- Activity (A549 [11]): 68.04%
- Activity (A549 [12]): 5.3%
- Activity (A549 [13]): 3.7%
- viability at 0.6 µM (A549 [14]): 50.6%
- Activity (A549 [15]): 4.5%
- viability at 0.8 µM (A549 [16]): 33.7%
- Activity (A549 [17]): 43.3%
- Activity (A549 [18]): 11.9%
- Activity (A549 [19]): Active
